Results: US20100029509A1, “NOVEL METHODS” (NATURAL ENVIRONMENT RESEARCH COUNCIL, priority 2006, published 2010)

Legend:
Pu promoter activity = assay: Catabolic repression of Pu activity in ADP1_pu_lux_xylR grown in minimal medium; format: cell-based, Acinetobacter baylyi ADP1
Protocol: Pu promoter activity was monitored by measuring relative bioluminescence (bioluminescence divided by OD600). For each measurement, at each time point 100 μl samples were analyzed in triplicate in a well of a black, clear-bottom 96-well microplate (Fisher Scientific). At OD600 and Bioluminescence were measured using a Synergy HT Multi-Detection Microplate Reader (Bio-Tek™). To examine the effect of catabolic repression Acinetobacter sp. ADP1_pu_lux_xylR was inoculated into 5 ml MM supplemented with 50 mM glucose or succinate as a sole carbon source in a 30-ml glass universal tube. […] The bacterial samples were incubated at 28° C. shaker with shaking at 150 rpm. […] For each treatment, three replicates were carried out. Samples were taken and measured for bioluminescence and OD600 every 30 min.

[1] = tested on: xylR/Pu regulation system (Pu promoter activity); assay: Induction of Pu promoter (relative bioluminescence, luxCDABE reporter) in Acinetobacter ADP1_pu_lux_xylR; format: cell-based, Acinetobacter baylyi ADP1; details: for Induction of Pu promoter: ADP1_pu_lux_xylR, inducer 100 μM in LB, following 30 hrs incubation; for Induction of Pu promoter activity: strain ADPWH_Pu_lux_xylR, bioluminescence from lux genes
Protocol: Pu promoter activity was monitored by measuring relative bioluminescence (bioluminescence divided by OD600). For each measurement, at each time point 100 μl samples were analyzed in triplicate in a well of a black, clear-bottom 96-well microplate (Fisher Scientific). At OD600 and Bioluminescence were measured using a Synergy HT Multi-Detection Microplate Reader (Bio-Tek™).
A single colony of Acinetobacter sp. ADP_pu_lux_xylR was separately inoculated into 5 ml LB medium in a 30-ml glass universal tube. Toluene, o-, m-, p-xylenes, phenol, benzene, naphthalene, 2-, 3-, or 4-hydroxybenzoic, benzoate or catechol was added into LB (100 μM) to assay induction of Pu. Samples were incubated at 20, 28, 30, 34 or 37° C. with shaking at 150 rpm. Samples were repeatedly loaded on black 96-well microplate for bioluminescence and OD600 measurement for 30 hours of incubation.

[2] = tested on: salA promoter operably linked to the lux genes; details: LB + 6 μg/ml tetracycline + 2 mM salicylate, FIG. 11
[3] = tested on: xylR/Pu regulation system (Pu promoter activity); assay: Induction of Pu promoter (relative bioluminescence, luxCDABE reporter) in Acinetobacter ADP1_pu_lux_xylR; format: cell-based, Acinetobacter baylyi ADP1; details: ADP1_Pu_lux_xylR on LB agar with 10 mM glucose, FIG. 1B; uninduced cells remained dark

Row | Molecule | Induction of Pu promoter [1] | also measured
1 | 6-phosphogluconic acid trisodium salt [6-phosphogluconate, reference compound] |  | Effect on Pu activity of added candidate repression signal molecule (Pu promoter activity; added to MM-glucose at 0.1-300 μM after maximal induction by m-xylene, data not shown): did not affect Pu activity
2 | O=C(O)c1ccccc1O [2-hydroxybenzoic (salicylic acid), salicylic acid] | cannot be induced | 
3 | O=C(O)c1cccc(O)c1 [3-hyroxybenzoic] | cannot be induced | 
4 | O=C(O)c1ccc(O)cc1 [4-hydroxybenzoic] | cannot be induced | 
5 | c1ccccc1 [benzene] | cannot be induced | 
6 | O=C(O)c1ccccc1 [benzoate] | cannot be induced | 
7 | Oc1ccccc1O [catechol] | cannot be induced | 
8 | Cc1cccc(C)c1 [m-xylene] |  | Induction of Pu promoter activity [1]: can be induced
9 | c1ccc2ccccc2c1 [naphthalene] | cannot be induced | 
10 | Cc1ccccc1C [o-xylene] |  | Induction of Pu promoter activity [1]: can be induced
11 | Cc1ccc(C)cc1 [p-xylene] |  | Induction of Pu promoter activity [1]: can be induced
12 | Oc1ccccc1 [phenol] | cannot be induced | 
13 | O=C(O)c1ccccc1O [salicylate] |  | Activation by salicylate, Transformant B (negative) [2]: not activated
14 | O=C(O)CCC(=O)O [succniate, succinate] |  | Repression of Pu activity by sole carbon source (Pu promoter activity; minimal medium with 50 mM carbon source, toluene, m-, p- or o-xylene 500 μM as inducers, 28° C., FIG. 3A): did
15 | Cc1ccccc1 [toluene] |  | Induction of Pu promoter activity [1]: can be induced
16 | xylene |  | Bioluminescence on agar medium when induced by vapors [3]: strong bioluminescence
